From publication PMC6968685 (Journal of Enzyme Inhibition and Medicinal Chemistry, 2020)
Counter-ions that a name gives are not always drawn.

Experiments:
[1] = system: T. brucei brucei AnTat 1.9; test: In vitro antitrypanosomal activity, Alamar Blue assay; assay type: cell-based; settings: for Selectivity index HepG2/Tryp.: SI = CC50 HepG2 / IC50 Trypanosoma brucei brucei; for IC50: Trypanosoma brucei, slender bloodstream trypomastigotes, AnTat 1.9 strain, read-out: Trypanosoma brucei brucei IC50 values, Trypanos Antat 1.9
Method: The effects of the tested compounds on the growth of T. brucei brucei were assessed using an Alamar Blue® assay described by Räz et al.[49] T. brucei brucei AnTat 1.9 (IMTA, Antwerpen, Belgium) was cultured in MEM with Earle’s salts, supplemented according to the protocol of Baltz et al.[50] with the following modifications: 0.5 mM mercaptoethanol (Sigma Aldrich), 1.5 mM L-cysteine (Sigma Aldrich), 0.05 mM bathocuproine sulphate (Sigma Aldrich), and 20% heat-inactivated horse serum (Gibco, France) at 37 °C and 5% CO2. Samples were incubated at an average density of 2000 parasites/well in sterile 96-wells plates (Fisher, France) with various concentrations of compounds dissolved in 0.9% NaCl. All doses were tested in duplicate. Appropriate controls treated with solvents 0.9% NaCl or DMSO or with suramin, pentamidine, eflornithine, and fexinidazole (reference drugs purchased from Sigma Aldrich and Fluorochem, UK) were added to each set of experiments. After 69 h incubation period at 37 °C, 10 µl of the viability marker Alamar Blue (Fisher) was added to each well, and the plates were incubated for 5 h. The plates were read in a PerkinElmer ENSPIRE (Germany) microplate reader using an excitation wavelength of 530 nm and an emission wavelength of 590 nm. […] IC50 values were calculated using a nonlinear regression analysis of dose-response curves performed using GraphPad Prism software (La Jolla, CA). IC50 values were calculated from three independent experiments.

[2] = Cytotoxicity evaluation, MTT; assay type: cell-based, human; settings: human
Method: These cells are a commonly used human hepatocarcinoma-derived cell line that has characteristics similar to those of primary hepatocytes. These cells express many hepatocyte-specific metabolic enzymes, thus enabling the cytotoxicity of tested product metabolites to be evaluated. […] Duplicate assays were performed for each sample. Each well was microscopically examined for precipitate formation before the medium was aspirated from the wells. After aspiration, 100 µl of MTT solution (0.5 mg/ml in medium without FCS) were then added to each well. […] The MTT solution was removed, and DMSO (100 µl) was added to dissolve the resulting blue formazan crystals. Plates were shaken vigorously (300 rpm) for 5 min. The absorbance was measured at 570 nm with 630 nm as reference wavelength in a BIO-TEK ELx808 Absorbance Microplate Reader. DMSO was used as blank and doxorubicin (Sigma Aldrich) as positive control. Cell viability was calculated as percentage of control (cells incubated without compound). The CC50 was determined from the dose-response curve using the TableCurve 2D version 5.0 software (Systat Software, San Jose, CA)

[3] = system: P. falciparum CQ-sensitive strain 3D7; test: In vitro antiplasmodial activity, SYBR Green I fluorescence-based method, strain 3D7; assay type: cell-based; settings: for IC50: Plasmodium falciparum, chloroquine-sensitive strain 3D7, 48 h incubation, read-out: P. falciparum strains IC50 values, 3D7; for Selectivity index HepG2/3D7: SI = CC50 HepG2 / IC50 P. falciparum 3D7
Method: (§1) The in vitro antiplasmodial activities were tested over concentrations ranging from […] against culture-adapted P. falciparum reference strains 3D7 and W2. […] The parasites were cultivated in RPMI medium (Sigma-Aldrich, Lyon, France) supplemented with 0.5% Albumax I (Life Technologies Corporation, Paisley, UK), hypoxanthine (Sigma-Aldrich), and gentamicin (Sigma-Aldrich) with human erythrocytes and were incubated at 37 °C in a candle jar, as described previously[43] .The P. falciparum drug susceptibility test was carried out in 96-well flat-bottom sterile plates in a final volume of 250 µl. After 48 h incubation period with the drugs, quantities of DNA in treated and control cultures of parasites in human erythrocytes were quantified using the SYBR Green I (Sigma-Aldrich) fluorescence-based method[44]^,[45]. Briefly, after incubation, plates were frozen at −20 °C until use. Plates were then thawed for 2 h at room temperature, and 100 µl of each homogenised culture was transferred to a well of a 96-well flat-bottom sterile black plate (Nunc, Inc., Rochester, NY) that contained 100 µl of the SYBR Green I lysis buffer (2xSYBR Green, 20 mM Tris base pH 7.5, 5 mM EDTA, 0.008% w/v saponin, 0.08% w/v Triton X-100). […] Plates were incubated for 1 h at room temperature and then read on a fluorescence plate reader (Tecan, Grödig, Austria) using excitation and emission wavelengths of 485 and 535 nm, respectively. IC50 values were calculated by non-linear regression analysis of data from dose-response curves, using TableCurve 2D version 5.0 software (Systat Software, San Jose, CA). IC50 values are reported as means calculated from three independent experiments.

[4] = system: L. donovani (MHOM/IN/00/DEVI) promastigotes; test: In vitro antileishmanial activity, MTT assay on promastigotes; assay type: cell-based; settings: Leishmania donovani, 72 h incubation, ≥10 = no activity noted at the highest concentration tested
Method: L. donovani (MHOM/IN/00/DEVI) used in this study was provided by the CNR Leishmania (Montpellier, France). The effects of the tested compounds on the growth of L. donovani (MHOM/IN/00/DEVI) promastigotes were assessed by MTT assay. Briefly, promastigotes in log-phase in Schneider’s medium supplemented with 20% foetal calf serum (FCS), 2 mM L-glutamine and antibiotics (100 U/ml penicillin and 100 µg/ml streptomycin), were incubated at an average density of 10^6 parasites/ml in sterile 96-well plates with various concentrations of compounds dissolved in DMSO (final concentration less than 0.5% v/v), in duplicate. Appropriate controls treated with DMSO and amphotericin B (reference drug purchased from Sigma-Aldrich) were added to each set of experiments. After 72 h incubation period at 27 °C, parasite metabolic activity was determined. Each well was microscopically examined for precipitate formation. To each well was added 20 µl of 5 mg/ml MTT [3–(4,5-dimethylthiazol-2-yl)-2,5-diphenyltetrazolium bromide)] solution followed by 4 h incubation time. The enzyme reaction was stopped by addition of 100 µl of 50% isopropanol/10% sodium dodecyl sulfate. Plates were vigorously shaken (300 rpm) for 10 min, and the absorbance was measured at 570 nm in a BIO-TEK ELx808 Absorbance Microplate Reader. […] IC50 of the parasite’s growth (half maximal inhibitory concentration or IC50 values) were then calculated from the obtained experimental results using a previously described regression programme.

[5] = system: P. falciparum CQ-resistant strain W2; test: In vitro antiplasmodial activity, SYBR Green I fluorescence-based method, strain W2; assay type: cell-based; settings: for IC50: Plasmodium falciparum, chloroquine-resistant strain W2, 48 h incubation, read-out: P. falciparum strains IC50 values, W2; for Selectivity index HepG2/W2: SI = CC50 HepG2 / IC50 P. falciparum W2
Method: as §1

`CN(C)CCCCNCc1ccc(-c2cc(-c3ccc(CNCCCCN(C)C)cc3)c3ccccc3n2)cc1` (as salt: (cooh)2) [Compound 1a, 2,4-Bis{4-[(4-dimethylaminobutyl)aminomethyl]phenyl}quinoline] gave a melting point of 258 to 260 °C.
With `CN1CCN(CCCNCc2ccc(-c3cc4ccccc4c(-c4ccc(CNCCCN5CCN(C)CC5)cc4)n3)cc2)CC1` [Compound 2d, 1,3-Bis{4-[(3–(4-methylpiperazin-1-yl)propyl)aminomethyl]phenyl}isoquinoline] the “Selectivity index HepG2/Tryp.” value [1] was 11.60, the IC50 [1] was 1.28 ± 0.122 µM and the CC50 at 72 h [2] was 14.8 ± 1.1 µM. For the same compound, the IC50 [3] was 5.77 ± 0.67 µM, the “Selectivity index HepG2/3D7” value [3] was 2.57 and the IC50 [4] was ≥ 10 µM. The IC50 [5] was 5.46 ± 0.44 µM and the “Selectivity index HepG2/W2” value [5] was 2.72.
For `COc1ccc2cc(-c3ccc(CNCCCCN4CCN(C)CC4)cc3)nc(-c3ccc(CNCCCCN4CCN(C)CC4)cc3)c2c1` [Compound 2g, 7-Methoxy-1,3-bis{4-[(4–(4-methylpiperazin-1-yl)butyl)aminomethyl]phenyl}isoquinoline], the “Selectivity index HepG2/Tryp.” value [1] was 10.16, the IC50 [1] was 1 ± 0.261 µM and the CC50 at 72 h [2] was 10.2 ± 0.9 µM. For the same compound, the IC50 [3] was 3.27 ± 0.31 µM, the “Selectivity index HepG2/3D7” value [3] was 3.11 and the IC50 [4] was ≥ 10 µM. The IC50 [5] was 7.61 ± 0.94 µM and the “Selectivity index HepG2/W2” value [5] was 1.33.
In the case of `COc1ccc2cc(-c3ccc(CNCCCN4CCN(C)CC4)cc3)nc(-c3ccc(CNCCCN4CCN(C)CC4)cc3)c2c1` [Compound 2h, 7-Methoxy-1,3-bis{4-[(3–(4-methylpiperazin-1-yl)propyl)aminomethyl]phenyl}isoquinoline], the “Selectivity index HepG2/Tryp.” value [1] is reported as 8.86, the IC50 [1] is reported as 0.81 ± 0.255 µM and the CC50 at 72 h [2] is reported as 7.18 ± 0.6 µM. The IC50 [3] was 1.81 ± 0.19 µM, the “Selectivity index HepG2/3D7” value [3] was 3.97 and the IC50 [4] was ≥ 10 µM. The IC50 [5] was 1.28 ± 0.34 µM and the “Selectivity index HepG2/W2” value [5] was 5.61.
With `COc1ccc2c(-c3ccc(CNCCCCN4CCN(C)CC4)cc3)nc(-c3ccc(CNCCCCN4CCN(C)CC4)cc3)cc2c1` [Compound 2k, 6-Methoxy-1,3-bis{4-[(4–(4-methylpiperazin-1-yl)butyl)aminomethyl]phenyl}isoquinoline] the “Selectivity index HepG2/Tryp.” value [1] was 6.54, the IC50 [1] was 0.99 ± 0.122 µM and the CC50 at 72 h [2] was 6.48 ± 0.6 µM. The IC50 [3] was 8.91 ± 0.87 µM, the “Selectivity index HepG2/3D7” value [3] was 0.73 and the IC50 [4] was ≥ 10 µM. The IC50 [5] was 5.96 ± 0.54 µM and the “Selectivity index HepG2/W2” value [5] was 1.09.
In the case of `COc1ccc2c(-c3ccc(CNCCCN4CCN(C)CC4)cc3)nc(-c3ccc(CNCCCN4CCN(C)CC4)cc3)cc2c1` [Compound 2l], the “Selectivity index HepG2/Tryp.” value [1] is reported as 1.50, the IC50 [1] is reported as 1.34 ± 0.088 µM and the CC50 at 72 h [2] is reported as 2.01 ± 0.2 µM. The IC50 [3] was 9.66 ± 1.2 µM, the “Selectivity index HepG2/3D7” value [3] was 0.21 and the IC50 [4] was ≥ 10 µM. For the same compound, the IC50 [5] was 9.6 ± 0.99 µM and the “Selectivity index HepG2/W2” value [5] was 0.21.
With `COc1ccc2nc(-c3ccc(CNCCCN4CCN(C)CC4)cc3)nc(-c3ccc(CNCCCN4CCN(C)CC4)cc3)c2c1` [Compound 3k, 6-Methoxy-2,4-bis{4-[(3–(4-methylpiperazin-1-yl)propyl)aminomethyl]phenyl}quinazoline] the “Selectivity index HepG2/Tryp.” value [1] was 24.06, the IC50 [1] was 0.94 ± 0.089 µM and the CC50 at 72 h [2] was 22.6 ± 1.1 µM. The IC50 [3] was 3.12 ± 0.23 µM, the “Selectivity index HepG2/3D7” value [3] was 7.25 and the IC50 [4] was ≥ 10 µM. The IC50 [5] was 4.84 ± 0.58 µM and the “Selectivity index HepG2/W2” value [5] was 4.67.
With `COc1ccc2nc(-c3ccc(CNCCN4CCN(C)CC4)cc3)nc(-c3ccc(CNCCN4CCN(C)CC4)cc3)c2c1` [Compound 3l, 6-Methoxy-2,4-bis{4-[(2–(4-methylpiperazin-1-yl)ethyl)aminomethyl]phenyl}quinazoline] the “Selectivity index HepG2/Tryp.” value [1] was 11.06, the IC50 [1] was 0.59 ± 0.057 µM and the CC50 at 72 h [2] was 6.53 ± 0.6 µM. For the same compound, the IC50 [3] was 1.81 ± 0.25 µM, the “Selectivity index HepG2/3D7” value [3] was 3.61 and the IC50 [4] was ≥ 10 µM. For the same compound, the IC50 [5] was 1.34 ± 0.29 µM and the “Selectivity index HepG2/W2” value [5] was 4.87.
For `COc1ccc2c(-c3ccc(CNCCN(C)C)cc3)nc(-c3ccc(CNCCN(C)C)cc3)nc2c1` [Compound 3o, 7-Methoxy-2,4-bis{4-[(2-dimethylaminoethyl)aminomethyl]phenyl}quinazoline], the “Selectivity index HepG2/Tryp.” value [1] was 1.52, the IC50 [1] was 0.75 ± 0.121 µM and the CC50 at 72 h [2] was 1.14 ± 0.4 µM. The IC50 [3] was 0.61 ± 0.03 µM, the “Selectivity index HepG2/3D7” value [3] was 1.87 and the IC50 [4] was ≥ 10 µM. The IC50 [5] was 0.99 ± 0.09 µM and the “Selectivity index HepG2/W2” value [5] was 1.15.
With `COc1ccc2c(-c3ccc(CNCCCCN4CCN(C)CC4)cc3)nc(-c3ccc(CNCCCCN4CCN(C)CC4)cc3)nc2c1` [Compound 3p, 7-Methoxy-2,4-bis{4-[(4–(4-methylpiperazin-1-yl)butyl)aminomethyl]phenyl}quinazoline] the “Selectivity index HepG2/Tryp.” value [1] was 17.01, the IC50 [1] was 1.02 ± 0.194 µM and the CC50 at 72 h [2] was 17.4 ± 1.2 µM. For the same compound, the IC50 [3] was 6.56 ± 1.44 µM, the “Selectivity index HepG2/3D7” value [3] was 2.64 and the IC50 [4] was ≥ 10 µM. The IC50 [5] was 5.08 ± 0.48 µM and the “Selectivity index HepG2/W2” value [5] was 3.41.
In the case of `COc1ccc2c(-c3ccc(CNCCCN4CCN(C)CC4)cc3)nc(-c3ccc(CNCCCN4CCN(C)CC4)cc3)nc2c1` [Compound 3q, 7-Methoxy-2,4-bis{4-[(3–(4-methylpiperazin-1-yl)propyl)aminomethyl]phenyl}quinazoline], the “Selectivity index HepG2/Tryp.” value [1] is reported as 0.74, the IC50 [1] is reported as 1.71 ± 0.145 µM and the CC50 at 72 h [2] is reported as 1.27 ± 0.5 µM. For the same compound, the IC50 [3] was 10.4 ± 0.58 µM, the “Selectivity index HepG2/3D7” value [3] was 0.12 and the IC50 [4] was ≥ 10 µM. For the same compound, the IC50 [5] was 11.5 ± 1.05 µM and the “Selectivity index HepG2/W2” value [5] was 0.11.
With `COc1ccc2c(-c3ccc(CNCCN4CCN(C)CC4)cc3)nc(-c3ccc(CNCCN4CCN(C)CC4)cc3)nc2c1` [Compound 3r, 7-Methoxy-2,4-bis{4-[(2–(4-methylpiperazin-1-yl)ethyl)aminomethyl]phenyl}quinazoline] the “Selectivity index HepG2/Tryp.” value [1] was 3.64, the IC50 [1] was 1.07 ± 0.164 µM and the CC50 at 72 h [2] was 3.9 ± 0.9 µM. The IC50 [3] was 4.34 ± 0.33 µM, the “Selectivity index HepG2/3D7” value [3] was 0.90 and the IC50 [4] was ≥ 10 µM. For the same compound, the IC50 [5] was 4.75 ± 0.31 µM and the “Selectivity index HepG2/W2” value [5] was 0.82.
